Assay results published in ChEMBL document CHEMBL1201862, “PubChem BioAssay data set” (2004).
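All cell lines were grown in 96-well plates and treated with compound for 48 hours. GI50: concentration for 50% inhibition of growth.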 The source made the active and inactive calls. Cut-off read from the data, not from the text of the source: active = GI50 up to about 1.1 µM and inactive = higher.

Legend:
Assay in all cases: NCI tumour cell line growth inhibition, 48 h
ACHN = tested on: ACHN
HCT-116 = tested on: HCT-116
MOLT-4 = tested on: MOLT-4
SN12C = tested on: SN12C
A549 = tested on: A549
MDA-MB-231 = tested on: MDA-MB-231
NCI-H23 = tested on: NCI-H23
U-251 = tested on: U-251
UACC-257 = tested on: UACC-257
MDA-N = tested on: MDA-N
NCI-H522 = tested on: NCI-H522
EKVX = tested on: EKVX
SK-MEL-28 = tested on: SK-MEL-28
T47D = tested on: T47D
OVCAR-5 = tested on: OVCAR-5
MCF7 = tested on: MCF7
NCI/ADR-RES = tested on: NCI/ADR-RES
BT-549 = tested on: BT-549
HCC 2998 = tested on: HCC 2998

Row | SMILES | GI50 (ACHN) | GI50 (HCT-116) | GI50 (MOLT-4) | GI50 (SN12C) | GI50 (A549) | GI50 (MDA-MB-231) | GI50 (NCI-H23) | GI50 (U-251) | GI50 (UACC-257) | GI50 (MDA-N) | GI50 (NCI-H522) | GI50 (EKVX) | GI50 (SK-MEL-28) | GI50 (T47D) | GI50 (OVCAR-5) | GI50 (MCF7) | GI50 (NCI/ADR-RES) | GI50 (BT-549) | GI50 (HCC 2998)
1 | N#C/C(=C\NC(=S)c1ccncc1)c1nc2ccccc2s1 | > 100 µM (inactive) | > 100 µM (inactive) | 31.2 µM (inactive) | > 100 µM (inactive) | > 100 µM (inactive) | 39.6 µM (inactive) | 51.2 µM (inactive) | 98.4 µM (inactive) | 30.9 µM (inactive) | > 100 µM (inactive) | > 100 µM (inactive) | 67.1 µM (inactive) | > 100 µM (inactive) | 37.9 µM (inactive) | > 100 µM (inactive) | 76.9 µM (inactive) | > 100 µM (inactive) | > 100 µM (inactive) | 21.7 µM (inactive)
2 | CCC(c1ccc2cc(O)ccc2c1)C(C)(C)C(=O)O (stereo not given) | > 100 µM (inactive) | > 100 µM (inactive) | > 100 µM (inactive) | > 100 µM (inactive) | > 100 µM (inactive) | > 100 µM (inactive) | > 100 µM (inactive) | > 100 µM (inactive) | > 100 µM (inactive) | > 100 µM (inactive) | > 100 µM (inactive) | > 100 µM (inactive) | > 100 µM (inactive) | > 100 µM (inactive) | > 100 µM (inactive) | > 100 µM (inactive) | > 100 µM (inactive) | > 100 µM (inactive) | > 100 µM (inactive)
3 | Cc1ccc2cccc(-c3cccc4ccccc34)c2n1 | 24.4 µM (inactive) | 17.8 µM (inactive) | 13.2 µM (inactive) | 25.6 µM (inactive) | 29.5 µM (inactive) | 22.9 µM (inactive) | 32.9 µM (inactive) | 12.7 µM (inactive) | 29.9 µM (inactive) | 4.2 µM (inactive) | 23.7 µM (inactive) | 21.4 µM (inactive) | 26.6 µM (inactive) | 15.8 µM (inactive) | 18.3 µM (inactive) | > 10 µM (inactive) | 26.1 µM (inactive) | 30.3 µM (inactive) | 12.1 µM (inactive)
4 | CN(C)c1ccc(/C=C(\NC(=O)c2ccccc2)C(=O)NCC(=O)O)cc1 | > 100 µM (inactive) | > 100 µM (inactive) | > 100 µM (inactive) | > 100 µM (inactive) | > 100 µM (inactive) | > 100 µM (inactive) | > 100 µM (inactive) | > 100 µM (inactive) | > 100 µM (inactive) | > 100 µM (inactive) | > 100 µM (inactive) | > 100 µM (inactive) | > 100 µM (inactive) | > 100 µM (inactive) | > 100 µM (inactive) | > 100 µM (inactive) | > 100 µM (inactive) | > 100 µM (inactive) | > 100 µM (inactive)
5 | O=C1NC(SSC2=NNC3(C(=O)N2)c2ccccc2-c2ccccc23)=NNC12c1ccccc1-c1ccccc12 | > 10 µM (inactive) | > 10 µM (inactive) | > 10 µM (inactive) | > 10 µM (inactive) | > 10 µM (inactive) | > 10 µM (inactive) | > 10 µM (inactive) | > 10 µM (inactive) | > 10 µM (inactive) | > 10 µM (inactive) | > 10 µM (inactive) | > 10 µM (inactive) | > 10 µM (inactive) | > 10 µM (inactive) | > 10 µM (inactive) | > 10 µM (inactive) | > 10 µM (inactive) | > 10 µM (inactive) | > 10 µM (inactive)
6 | O=C(/C=C1\N=C(c2ccccc2)N(c2nc3ccc(Sc4ccccc4)cc3[nH]2)C1=O)/C=C/c1ccccc1 | 52.7 µM (inactive) | 32.8 µM (inactive) | 33.3 µM (inactive) | 40 µM (inactive) | 41.1 µM (inactive) | 22.4 µM (inactive) | 31.6 µM (inactive) | 27.7 µM (inactive) | 30.8 µM (inactive) | 14.9 µM (inactive) | 20.3 µM (inactive) | 43.4 µM (inactive) | 46.5 µM (inactive) | 22.6 µM (inactive) | 44 µM (inactive) | 30.1 µM (inactive) | 24.4 µM (inactive) | 31.1 µM (inactive) | 17.4 µM (inactive)
7 | CC1=NN2C(=N)/C(=C/c3ccccc3)C(=O)N=C2S1 | > 100 µM (inactive) | > 100 µM (inactive) | > 100 µM (inactive) | > 100 µM (inactive) | > 100 µM (inactive) | > 100 µM (inactive) | > 100 µM (inactive) | > 100 µM (inactive) | > 100 µM (inactive) | > 100 µM (inactive) | > 36.9 µM (inactive) | > 100 µM (inactive) | > 100 µM (inactive) | > 100 µM (inactive) | > 100 µM (inactive) | 0.867 µM (active) | > 33.1 µM (inactive) | > 100 µM (inactive) | > 100 µM (inactive)
8 | NC(=O)c1ccc(/N=N/O)nc1 | > 100 µM (inactive) | > 100 µM (inactive) | > 100 µM (inactive) | > 100 µM (inactive) | > 100 µM (inactive) | > 100 µM (inactive) | > 100 µM (inactive) | > 100 µM (inactive) | > 100 µM (inactive) | > 100 µM (inactive) | > 100 µM (inactive) | > 100 µM (inactive) | > 100 µM (inactive) | > 100 µM (inactive) | > 100 µM (inactive) | > 100 µM (inactive) | > 100 µM (inactive) | > 100 µM (inactive) | > 100 µM (inactive)
9 | OC1CC2CCC(C1)N2CCCN1c2ccccc2Sc2ccc(Cl)cc21 (stereo not given) | 2.23 µM (inactive) | 1.83 µM (inactive) | 2.29 µM (inactive) | 3.73 µM (inactive) | 2.54 µM (inactive) | 1.84 µM (inactive) | 3.13 µM (inactive) | 1.87 µM (inactive) | 1.29 µM (inactive) | 1.87 µM (inactive) | 1.99 µM (inactive) | 3.72 µM (inactive) | 1.81 µM (inactive) | 2.23 µM (inactive) | 2.82 µM (inactive) | 1.59 µM (inactive) | 2.36 µM (inactive) | 4.86 µM (inactive) | 0.338 µM (active)
10 | Cc1ccc(S(=O)(=O)NC(=O)Nc2nc[nH]n2)cc1 | > 100 µM (inactive) | > 100 µM (inactive) | > 100 µM (inactive) | > 100 µM (inactive) | > 100 µM (inactive) | > 100 µM (inactive) | > 100 µM (inactive) | > 100 µM (inactive) | > 100 µM (inactive) | > 100 µM (inactive) | > 100 µM (inactive) | > 100 µM (inactive) | > 100 µM (inactive) | > 100 µM (inactive) | > 100 µM (inactive) | > 100 µM (inactive) | > 100 µM (inactive) | > 100 µM (inactive) | > 100 µM (inactive)
